# Calls of active or inactive are those of the source. The calls are words filed in the database; no cut-off is given here.
# What was measured:
# [1] = test system: HT-29; assay: Growth inhibition of ERalpha-negative and ERbeta-positive human HT-29 cells at 10 uM after 72 hrs in presence of 10% FCS; type: functional; settings: HT-29, 72 h, read-out: GI
# [2] = test system: A549; assay: Growth inhibition of ERalpha-negative and ERbeta-positive human A549 cells at 10 uM after 72 hrs; type: functional; settings: A549, 72 h, read-out: GI
# [3] = test system: HeLa; assay: Growth inhibition of human HeLa cells at 1 uM after 96 hrs by MTT assay in presence of 5% serum; type: functional; settings: read-out: GI
# [4] = test system: HeLa; assay: Induction of apoptosis in human HeLa cells plated on serum free media for 24 hrs assessed as caspase 3 cleavage at 10 uM after 12 hrs; type: functional
# [5] = test system: SK-BR-3; assay: Growth inhibition of estrogen receptor-deficient human SKBR3 cells at 1 uM after 144 hrs by MTT assay relative to control in presence of 5% serum; type: functional; settings: SK-BR-3, 144 h, read-out: GI
# [6] = test system: SK-BR-3; assay: Growth inhibition of estrogen receptor-deficient human SKBR3 cells at 1 uM after 216 hrs by MTT assay relative to control in presence of 5% serum; type: functional; settings: SK-BR-3, 216 h, read-out: GI
# [7] = test system: HeLa; assay: Induction of apoptosis in human HeLa cells assessed as ATP level at 0.5 uM after 48 hrs by luminometric analysis; type: functional
# [8] = test system: SK-BR-3; assay: Induction of apoptosis in human SKBR3 cells assessed as DNA fragmentation at 1 uM after 72 hrs by acridine orange staining; type: functional
# [9] = test system: HeLa; assay: Induction of apoptosis in human HeLa cells assessed as ATP level at 1 uM after 72 hrs by acridine orange staining; type: functional
# [10] = Induction of apoptosis in mouse MMTV-Wnt-1 cells assessed as cell viability after 72 hrs by DAPI staining based cell counting; type: functional
# [11] = test system: HT-29; assay: Induction of apoptosis in human HT-29 cells assessed as decrease in ATP level at 10 uM after 72 hrs by luminescence assay; type: functional; parameters: scale not given: the % may be the effect or the level left
# [12] = test system: A549; assay: Induction of apoptosis in human A549 cells assessed as decrease in ATP level at 10 uM after 72 hrs by luminescence assay; type: functional, cell-based
# [13] = test system: PC-3; assay: Induction of apoptosis in human PC3 cells assessed as decrease in ATP level at 10 uM after 72 hrs by luminescence assay; type: functional, cell-based
# [14] = test system: A549; assay: Induction of apoptosis in human A549 cells assessed as decrease in ATP level after 72 hrs by luminescence assay; type: functional, cell-based
# [15] = test system: PC-3; assay: Induction of apoptosis in human PC3 cells assessed as decrease in ATP level after 72 hrs by luminescence assay; type: functional, cell-based
# [16] = test system: HT-29; assay: Induction of apoptosis in human HT-29 cells assessed as decrease in ATP level at 10 uM after 72 hrs by luminescence assay relative to control; type: functional; parameters: scale not given: the % may be the effect or the level left
# [17] = test system: HT-29; assay: Induction of apoptosis in human HT-29 cells assessed as decrease in ATP level after 72 hrs by luminescence assay; type: functional, cell-based
# [18] = test system: A549; assay: Induction of apoptosis in human A549 cells assessed as decrease in ATP level at 5 uM after 72 hrs by luminescence assay; type: functional; parameters: scale not given: the % may be the effect or the level left
# [19] = test system: PC-3; assay: Induction of apoptosis in human PC3 cells assessed as decrease in ATP level at 5 uM after 72 hrs by luminescence assay; type: functional; parameters: scale not given: the % may be the effect or the level left
# [20] = test system: HT-29; assay: Induction of apoptosis in human HT-29 cells assessed as decrease in ATP level at 5 uM after 72 hrs by luminescence assay; type: functional; parameters: scale not given: the % may be the effect or the level left
# [21] = test system: KG-1; assay: Growth inhibition in human KG1 cells expressing p53 gene at 1 uM after 48 hrs by MTT assay; type: functional; settings: KG-1, 48 h, read-out: GI
# [22] = test system: KG-1; assay: Growth inhibition in human KG1 cells expressing p53 gene at 5 uM after 48 hrs by MTT assay; type: functional; settings: KG-1, 48 h, read-out: GI
# [23] = test system: KG-1; assay: Induction of apoptosis in human KG1 cells expressing p53 gene assessed as DNA fragmentation at 1 uM after 48 hrs by acridine orange staining method; type: functional
# [24] = test system: KG-1; assay: Induction of apoptosis in human KG1 cells assessed as DNA fragmentation at 5 uM after 48 hrs by acridine orange staining method; type: functional
# [25] = Aqueous solubility of the compound in PBS at pH 7.2 by UV spectrophotometric analysis; type: physicochemical; settings: PBS, read-out: solubility
# [26] = Aqueous solubility of the compound in water at pH 5 by UV spectrophotometric analysis; type: physicochemical
# [27] = test system: KG-1; assay: Induction of apoptosis in human KG1 cells expressing p53 gene assessed as DNA fragmentation at 0.1 to 1 uM after 48 hrs by acridine orange staining method; type: functional, cell-based
# [28] = test system: KG-1; assay: Growth inhibition in human KG1 cells expressing p53 gene at 0.1 to 1 uM after 48 hrs by MTT assay; type: functional, cell-based
# [29] = test system: MDA-MB-231; assay: Growth inhibition of retinoid-resistant human MDA-MB-231 cells expressing p53 and ERbeta gene at 0.1 to 1 uM by MTT assay; type: functional, cell-based; settings: TDE = time-dependent effect
# [30] = test system: MDA-MB-231; assay: Growth inhibition of retinoid-resistant human MDA-MB-231 cells expressing p53 and ERbeta gene after 48 hrs by MTT assay; type: functional, cell-based
# [31] = test system: MDA-MB-231; assay: Induction of apoptosis in retinoid-resistant human MDA-MB-231 cells expressing p53 and ERbeta gene assessed as DNA fragmentation at 0.1 to 1 uM by acridine orange staining method; type: functional, cell-based; settings: TDE = time-dependent effect
# [32] = test system: MDA-MB-231; assay: Induction of apoptosis in retinoid-resistant human MDA-MB-231 cells expressing p53 and ERbeta gene assessed as DNA fragmentation after 48 hrs by acridine orange staining method; type: functional, cell-based
# [33] = test system: MDA-MB-231; assay: Growth inhibition of retinoid-resistant human MDA-MB-231 cells expressing p53 and ERbeta gene at 1 uM after 24 hrs by MTT assay; type: functional; settings: MDA-MB-231, 24 h, read-out: GI
# [34] = test system: MDA-MB-231; assay: Growth inhibition of retinoid-resistant human MDA-MB-231 cells expressing p53 and ERbeta gene at 1 uM after 48 hrs by MTT assay; type: functional; settings: MDA-MB-231, 48 h, read-out: GI
# [35] = test system: MDA-MB-231; assay: Induction of apoptosis in retinoid-resistant human MDA-MB-231 cells expressing p53 and ERbeta gene assessed as DNA fragmentation at 1 uM after 24 hrs by acridine orange staining method; type: functional
# [36] = test system: MDA-MB-231; assay: Induction of apoptosis in retinoid-resistant human MDA-MB-231 cells expressing p53 and ERbeta gene assessed as DNA fragmentation at 1 uM after 48 hrs by acridine orange staining method; type: functional
# [37] = test system: SK-BR-3; assay: Induction of apoptosis in estrogen receptor-deficient human SKBR3 cells assessed as DNA fragmentation at 0.5 uM by acridine orange staining; type: functional, cell-based; settings: TDE = time-dependent effect
# [38] = test system: HeLa; assay: Induction of apoptosis in human HeLa cells assessed as ATP level at 0.5 uM by luminometric analysis; type: functional, cell-based; settings: TDE = time-dependent effect
# [39] = test system: SK-BR-3; assay: Induction of apoptosis in estrogen receptor-deficient human SKBR3 cells assessed as DNA fragmentation at 0.5 uM after 48 hrs by acridine orange staining; type: functional
smiles,measurement,setting,value
CC1=C(/C=C/C(C)=C/C=C/C(C)=C/C(=O)O)C(C)(C)CCC1 [TRETINOIN],inhibition of growth at 10 µM,[1],8%
same,inhibition of growth at 10 µM,[2],5%
same,inhibition of growth at 1 µM,[3],71%
same,Activity,[4],87%
same,inhibition of growth at 1 µM,[5],36%
same,inhibition of growth at 1 µM,[6],24%
O=C(O)/C=C/c1ccc(-c2ccc(O)c(C34CC5CC(CC(C5)C3)C4)c2)nc1,Activity,[7],>60%
same,Activity,[8],15%
same,Activity,[9],2.6%
same,IC50,[10],19 nM
same,Activity,[11],>=40%
same,Activity,[12],Active
same,Activity,[13],Active
same,Activity,[14],Dose-dependent effect
same,Activity,[15],Dose-dependent effect
same,Activity,[16],<60%
same,Activity,[17],Dose-dependent effect
same,Activity,[18],30%
same,Activity,[19],30%
same,Activity,[20],30%
same,inhibition of growth at 1 µM,[21],85%
same,inhibition of growth at 5 µM,[22],90%
same,Activity,[23],68%
same,Activity,[24],84%
same,solubility,[25],14 µM
same,solubility,[26],7 µM
same,Activity,[27],Active
same,growth inhibition (GI),[28],Active
same,growth inhibition (GI),[29],tde
same,growth inhibition (GI),[30],Dose-dependent effect
same,Activity,[31],tde
same,Activity,[32],Dose-dependent effect
same,inhibition of growth at 1 µM,[33],86%
same,inhibition of growth at 1 µM,[34],85%
same,Activity,[35],38%
same,Activity,[36],82%
same,Activity,[37],tde
same,Activity,[38],tde
same,Activity,[39],1.9%
